This is an account of results in US6727264B1 (Synaptic Pharmaceutical Corporation, priority 2001, dated 2004).

Each structure is given as a SMILES string.

In this test the target is rat MCH-1 (Rattus norvegicus, UniProt P97639). Description: Radioligand binding assay at cloned rat MCH1 receptor ([3H] Compound A). The arrangement: host or cells: Peak rapid 293 (Peakr293) cells, transient calcium phosphate transfection, membranes. The conditions noted are these: cloned rat MCH1 receptor, membranes from Peakr293 cells, 0.08 nM [3H] Compound A; read-out: Ki (nM) rMCH1.
Sequence of rat MCH-1 (P97639 whole entry): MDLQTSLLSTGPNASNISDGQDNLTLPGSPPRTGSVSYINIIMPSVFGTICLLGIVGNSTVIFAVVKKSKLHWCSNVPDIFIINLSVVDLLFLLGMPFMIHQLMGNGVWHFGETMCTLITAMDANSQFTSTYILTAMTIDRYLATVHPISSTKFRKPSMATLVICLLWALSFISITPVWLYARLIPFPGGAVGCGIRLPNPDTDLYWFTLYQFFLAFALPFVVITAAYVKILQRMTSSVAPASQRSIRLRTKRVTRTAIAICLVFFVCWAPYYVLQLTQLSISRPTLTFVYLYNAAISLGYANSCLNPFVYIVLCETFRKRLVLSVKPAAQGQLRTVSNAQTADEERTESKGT
Consider `CC(C)C(=O)Nc1cccc(C2CCN(CC[C@H](NC(=O)c3ccccn3)c3ccccc3)CC2)c1` [Example 309], for which the Ki (commonly the dissociation constant of the complex between target and ligand, obtained from inhibition or displacement) is 310 nM.

Regarding `COc1ccccc1C(=O)N[C@@H](CCN1CCC(c2cccc(NC(=O)C(C)C)c2)CC1)c1ccccc1` [Example 310], the Ki came out at 152 nM.

Consider `CC(C)C(=O)Nc1cccc(C2CCN(CC[C@H](NC(=O)c3cccc4ccccc34)c3ccccc3)CC2)c1` [Example 311], for which the Ki was 43 nM.

In the case of `CC(C)C(=O)Nc1cccc(C2CCN(CC[C@H](NC(=O)c3ccc(F)cc3F)c3ccccc3)CC2)c1` [Example 312], the Ki was 61.5 nM.

In the case of `Cc1onc(-c2c(F)cccc2Cl)c1C(=O)N[C@@H](CCN1CCC(c2cccc(NC(=O)C(C)C)c2)CC1)c1ccccc1` [Example 313], the Ki is 249 nM.

`CC(C)C(=O)Nc1cccc(C2CCN(CC[C@H](NC(=O)c3sccc3Cl)c3ccccc3)CC2)c1` [Example 314]: the Ki worked out at 7.6 nM.

Take `CC(C)C(=O)Nc1cccc(C2CCN(CC[C@H](NC(=O)c3cccnc3Oc3ccccc3)c3ccccc3)CC2)c1` [Example 315]: the inhibition constant Ki worked out at 11.4 nM.

As to `CCCc1nn(-c2ccc(Cl)cc2)cc1C(=O)N[C@@H](CCN1CCC(c2cccc(NC(=O)C(C)C)c2)CC1)c1ccccc1` [Example 316], the inhibition constant Ki is 8.3 nM.

As to `Cc1nn(C)c2ncc(C(=O)N[C@@H](CCN3CCC(c4cccc(NC(=O)C(C)C)c4)CC3)c3ccccc3)c(Cl)c12` [Example 317], the Ki stood at 110 nM.

For `CC(C)C(=O)Nc1cccc(C2CCN(CC[C@H](NC(=O)c3ccc(Oc4cc(Cl)cc(Cl)c4)[nH]3)c3ccccc3)CC2)c1` [Example 318], the inhibition constant (Ki) amounted to 251 nM.

For the compound `CC(C)C(=O)Nc1cccc(C2CCN(CC[C@H](NC(=O)c3cccnc3)c3ccccc3)CC2)c1` [Example 319], the Ki turned out to be 89.8 nM.

As to `CC(C)C(=O)Nc1cccc(C2CCN(CC[C@H](NC(=O)c3ccc(F)c(F)c3)c3ccccc3)CC2)c1` [Example 320], the Ki worked out at 10.6 nM.

As to `CCCc1nn(-c2ccccc2)cc1C(=O)N[C@@H](CCN1CCC(c2cccc(NC(=O)C(C)C)c2)CC1)c1ccccc1` [Example 321], the Ki was found to be 50.9 nM.

Regarding `CC(C)C(=O)Nc1cccc(C2CCN(CC[C@H](NC(=O)c3ccc(N(C)C)cc3)c3ccccc3)CC2)c1` [Example 322], the Ki was 99.9 nM.

Take `CC(C)C(=O)Nc1cccc(C2CCN(CC[C@H](NC(=O)c3cccs3)c3ccccc3)CC2)c1` [Example 323]: the inhibition constant Ki turned out to be 37 nM.

On to `CC(C)C(=O)Nc1cccc(C2CCN(CC[C@H](NC(=O)c3ccc([N+](=O)[O-])o3)c3ccccc3)CC2)c1` [Example 324], for which the Ki is 76.8 nM.

In the case of `Cc1onc(-c2ccccc2)c1C(=O)NCCCN1CCC(c2cccc(NC(=O)C(C)C)c2)CC1` [Example 325], the Ki stood at 29.8 nM.

Consider `CC(C)C(=O)Nc1cccc(C2CCN(CC[C@H](NC(=O)c3ccco3)c3ccccc3)CC2)c1` [Example 326], for which the Ki worked out at 19.2 nM.

Regarding `CC(C)C(=O)Nc1cccc(C2CCN(CC[C@H](NC(=O)c3cnn(-c4ccc([N+](=O)[O-])cc4)c3C(F)(F)F)c3ccccc3)CC2)c1` [Example 327], the Ki was determined as 7.7 nM.

For the compound `Cc1onc(-c2c(F)cccc2Cl)c1C(=O)NCCCN1CCC(c2cccc(NC(=O)C(C)C)c2)CC1` [Example 328], the inhibitory constant (Ki) is 47.6 nM.

On to `CC(C)C(=O)Nc1cccc(C2CCN(CCCNC(=O)c3csc4ccccc34)CC2)c1` [Example 330], for which the Ki came to 215 nM.

As to `Cc1onc(-c2ccccc2Cl)c1C(=O)NCCCN1CCC(c2cccc(NC(=O)C(C)C)c2)CC1` [Example 331], the Ki worked out at 51.3 nM.

On to `Cc1onc(-c2c(Cl)cccc2Cl)c1C(=O)NCCCN1CCC(c2cccc(NC(=O)C(C)C)c2)CC1` [Example 332], for which the Ki was 29 nM.

Take `CC(=O)c1cccc(O[C@H](CN2CCC(c3cccc(NC(=O)C(C)C)c3)CC2)c2ccccc2)c1` [Example 333]: the Ki is 568 nM.

For `CC(=O)c1ccccc1O[C@H](CN1CCC(c2cccc(NC(=O)C(C)C)c2)CC1)c1ccccc1` [Example 334], the Ki was 603 nM.

On to `CC(C)C(=O)Nc1cccc(C2CCN(C[C@@H](Oc3cccc(Cl)c3)c3ccccc3)CC2)c1` [Example 335], for which the Ki was 888 nM.

As to `COc1ccc(O[C@H](CN2CCC(c3cccc(NC(=O)C(C)C)c3)CC2)c2ccccc2)cc1OC` [Example 336], the Ki was 693 nM.

Take `CC(C)C(=O)Nc1cccc(C2CCN(C[C@H](Oc3ccc(F)cc3)c3ccccc3)CC2)c1` [Example 337]: the Ki was determined as 907 nM.

In the case of `COc1cccc(O[C@@H](CN2CCC(c3cccc(NC(=O)C(C)C)c3)CC2)c2ccccc2)c1` [Example 338], the inhibitory constant (Ki) amounted to 844 nM.

On to `CC(C)C(=O)Nc1cccc(C2CCN(C[C@H](Oc3cccc(Cl)c3)c3ccccc3)CC2)c1` [Example 339], for which the Ki is 890 nM.

On to `CC(=O)c1cccc(O[C@@H](CCN2CCC(c3cccc(NC(=O)C4CC4)c3)CC2)c2ccccc2)c1` [Example 340], for which the Ki amounted to 15.6 nM.

For the compound `CC(=O)c1cccc(OCCCN2CCC(c3cccc(NC(=O)C(C)C)c3)CC2)c1` [Example 341], the Ki was found to be 256 nM.

On to `CC(=O)c1cccc(OCCCN2CCC(c3cccc(NC(=O)C4CC4)c3)CC2)c1` [Example 342], for which the Ki was determined as 183 nM.

For the compound `CC(C)C(=O)Nc1cccc(C2CCN(CCCOc3ccccc3F)CC2)c1` [Example 343], the Ki was 195 nM.

As for `CC(C)C(=O)Nc1cccc(C2CCN(CCCOc3cccc(Cl)c3)CC2)c1` [Example 344], the Ki was determined as 44.6 nM.

Regarding `CC(C)C(=O)Nc1cccc(C2CCN(CCCOc3ccc(Cl)cc3)CC2)c1` [Example 345], the Ki stood at 15.4 nM.

Take `CC(C)C(=O)Nc1cccc(C2CCN(CCCOc3cccc(F)c3)CC2)c1` [Example 346]: the Ki was 107 nM.

As for `CC(C)C(=O)Nc1cccc(C2CCN(CCCOc3ccc(F)cc3)CC2)c1` [Example 347], the Ki came to 54.8 nM.

`CC(C)C(=O)Nc1cccc(C2CCN(CCCOc3ccccc3Cl)CC2)c1` [Example 348]: the inhibition constant Ki was 84 nM.

Turning to `Cc1ccc(OCCCN2CCC(c3cccc(NC(=O)C(C)C)c3)CC2)cc1C` [Example 349], the inhibition constant Ki is 20.4 nM.

Turning to `CC(C)C(=O)Nc1cccc(C2CCN(CCCOc3ccccc3Br)CC2)c1` [Example 350], the Ki is 12.1 nM.

As to `CC(C)C(=O)Nc1cccc(C2CCN(CCCOc3cccc(Br)c3)CC2)c1` [Example 351], the inhibition constant (Ki) turned out to be 61.8 nM.

For `CC(C)C(=O)Nc1cccc(C2CCN(CCCOc3ccc(Br)cc3)CC2)c1` [Example 352], the Ki stood at 13.3 nM.

Regarding `COc1ccc(O[C@H](CCN2CCC(c3cccc(N(C)C(=O)C(C)C)c3)CC2)c2ccccc2)cc1OC` [Example 353], the Ki turned out to be 41.8 nM.

As to `CC(=O)c1cccc(O[C@H](CCN2CCC(c3cccc(N(C)C(=O)C(C)C)c3)CC2)c2ccccc2)c1` [Example 354], the Ki came out at 81.6 nM.

On to `CC(=O)c1cccc(O[C@@H](CCN2CCC(c3cccc(N(C)C(=O)C(C)C)c3)CC2)c2ccccc2)c1` [Example 355], for which the Ki worked out at 117 nM.

Consider `CC(C)C(=O)Nc1cccc(C2CCN(C[C@H](C)COc3ccc(Br)cc3)CC2)c1` [Example 356], for which the Ki is 54.5 nM.

Regarding `CC(C)C(=O)Nc1cccc(C2CCN(C[C@H](C)COc3cc(F)c(F)cc3F)CC2)c1` [Example 357], the Ki was found to be 115 nM.

Regarding `CC(C)C(=O)Nc1cccc(C2CCN(C[C@H](C)COc3cccc(Cl)c3)CC2)c1` [Example 358], the Ki is 136 nM.

For the compound `CC(C)C(=O)Nc1cccc(C2CCN(C[C@H](C)COc3ccc(F)cc3)CC2)c1` [Example 359], the Ki was 83.2 nM.

Take `CC(C)C(=O)Nc1cccc(C2CCN(C[C@H](C)COc3cccc(F)c3)CC2)c1` [Example 360]: the Ki was 163 nM.

Consider `CC(C)C(=O)Nc1cccc(C2CCN(C[C@H](C)COc3ccccc3Cl)CC2)c1` [Example 361], for which the Ki stood at 311 nM.

As for `CC(C)C(=O)Nc1cccc(C2CCN(C[C@H](C)COc3ccccc3F)CC2)c1` [Example 362], the inhibition constant (Ki) came to 281 nM.

In the case of `CC(C)C(=O)Nc1cccc(C2CCN(C[C@H](C)COc3ccc(Cl)cc3)CC2)c1` [Example 363], the Ki came out at 31.6 nM.

Consider `CC(C)C(=O)Nc1cccc(C2CCN(C[C@H](C)COc3cccc(Br)c3)CC2)c1` [Example 364], for which the Ki stood at 144 nM.

Consider `CC(C)C(=O)Nc1cccc(C2CCN(C[C@H](C)COc3ccccc3Br)CC2)c1` [Example 365], for which the Ki worked out at 42.9 nM.

Turning to `CC(C)C(=O)Nc1cccc(C2CCN(C[C@@H](C)COc3cccc(F)c3)CC2)c1` [Example 366], the Ki stood at 646 nM.

For `CC(C)C(=O)Nc1cccc(C2CCN(C[C@@H](C)COc3ccc(F)cc3)CC2)c1` [Example 367], the Ki stood at 236 nM.

For the compound `CC(C)C(=O)Nc1cccc(C2CCN(C[C@@H](C)COc3ccccc3Cl)CC2)c1` [Example 368], the Ki came to 313 nM.

On to `CC(C)C(=O)Nc1cccc(C2CCN(C[C@@H](C)COc3ccc(Cl)cc3)CC2)c1` [Example 369], for which the Ki worked out at 145 nM.

With `CC(C)C(=O)Nc1cccc(C2CCN(C[C@@H](C)COc3cccc(Br)c3)CC2)c1` [Example 371], the Ki was 163 nM.

Regarding `CC(C)C(=O)Nc1cccc(C2CCN(C[C@@H](C)COc3ccccc3Br)CC2)c1` [Example 372], the Ki came to 358 nM.

In the case of `CC(C)C(=O)Nc1cccc(C2CCN(C[C@@H](C)COc3cccc(Cl)c3)CC2)c1` [Example 373], the Ki is 428 nM.

`CC(C)C(=O)Nc1cccc(C2CCN(CCCC3OCC(C)(C)CO3)CC2)c1` [Example 374]: the Ki came to 96.8 nM.

For the compound `CC(=O)c1cccc(OCCCCN2CCC(c3cccc(NC(=O)C(C)C)c3)CC2)c1` [Example 375], the Ki was 186 nM.

In the case of `COc1cccc(OCCCCN2CCC(c3cccc(NC(=O)C(C)C)c3)CC2)c1` [Example 376], the Ki came to 888 nM.

As for `COc1ccc(OCCCCN2CCC(c3cccc(NC(=O)C(C)C)c3)CC2)cc1` [Example 377], the Ki stood at 712 nM.

As to `COc1ccccc1OCCCCN1CCC(c2cccc(NC(=O)C(C)C)c2)CC1` [Example 378], the inhibition constant Ki is 308 nM.

`Cc1ccc(OCCCCN2CCC(c3cccc(NC(=O)C(C)C)c3)CC2)cc1C` [Example 379]: the Ki came to 204 nM.
